Test results as given in article PMC4503722, “Novel Phenotypic Outcomes Identified for a Public Collection of Approved Drugs from a Publicly Accessible Panel of Assays” (PLoS ONE, 2015).
Where two headings read alike, the source gives them in different places. *1 amine or outer side, *2 acyl side, *3 side chain or, on linkers, in order; H or OH if unused. Where a SMILES comes first, the peptide text is derived from it. Bridges are numbered along the chain shown (N, C = ends). Roman numbers before positions name the chains, in order. [ ]: non-standard residue; d: D form. The star is where a group is joined. Actinocin(9to1) = Cc1c2oc3c(C)ccc(C(=O)[*:1])c3nc-2c(C(=O)[*:2])c(N)c1=O; Sta = CC(C)C[C@H](N)[C@@H](O)CC(=O)O; NMeV = CN[C@H](C(=O)O)C(C)C; Isovaleryl = CC(C)CC(=O)*; Sar = CNCC(=O)O

Legend:
Test in all cases: cells
[1] = test system: HCT116 cells treated with a GSK3β inhibitor; assay type: cell-based
[2] = test system: endothelial tube formation in co-cultures of ECFCs and ADSCs treated with VEGF; assay type: cell-based, human
INS-1E cells = assay type: cell-based, rat
NCI-H716 cells = assay type: cell-based, Human
HCT116 = assay type: cell-based
DLD-1 = assay type: cell-based
HeLa cells = assay type: cell-based; conditions: for EC50: read-out: CellCycle G2/M
SW480 = assay type: cell-based
[3] = test system: nuclear β-catenin in C2C12 cells; assay type: cell-based
[4] = Homo sapiens, HCT-116, HCT116 pretreated with GSK3b inhibitor, read-out: GSK3b inh pretreated_Viability ATP HCT116
[5] = Homo sapiens, read-out: Anti-Angiogenesis
[6] = Rattus norvegicus, INS-1E, read-out: Insulin Secretion
[7] = Homo sapiens, NCI-H716, read-out: GLP 1 Secretion
[8] = Homo sapiens, HCT-116, basal, HCT116, read-out: Basal_Viability ATP HCT116
[9] = Homo sapiens, DLD-1, basal, DLD-1, read-out: Basal_Viability ATP DLD-1
[10] = Homo sapiens, HeLa, S2 Table, HeLa, 20 = no response at highest concentration
[11] = Homo sapiens, SW480, basal, SW480, read-out: Basal_Viability ATP SW480
[12] = Mus musculus, C2C12, S2 Table, module primary assay, 20 / 20.1 codes per legend, read-out: Wnt Pathway
[13] = Rattus norvegicus, INS-1E, read-out: Ins. sec. EC50
[14] = Homo sapiens, NCI-H716, read-out: GLP1 sec. EC50
[15] = Homo sapiens, HCT-116, 72 h, read-out: HCT-116 viab. IC50, Table 2, basal, 72 h, Cell TiterGlo, non-adherent, 20 coded
[16] = Homo sapiens, DLD-1, 72 h, Table 2, 72 h, Cell TiterGlo, non-adherent, 20 coded, read-out: DLD-1 viab. IC50
[17] = Homo sapiens, SW480, 72 h, Table 2, 72 h, Cell TiterGlo, non-adherent, 20 coded, read-out: SW480 viab. IC50
[18] = Mus musculus, C2C12, Table 2, C2C12, […], 20 / 20.1 coded, read-out: Wnt pot. EC50
[19] = Homo sapiens, HCT-116, GSK3b inhibitor pretreated, read-out: GSK3b inh pretreated_Viability ATP HCT116
[20] = Homo sapiens, IC50 / EC50, endothelial tube area, ADSC/ECFC co-culture, read-out: Anti-Angiogenesis
[21] = Rattus norvegicus, IC50 / EC50, INS-1E, read-out: Insulin Secretion
[22] = Homo sapiens, IC50 / EC50, NCI-H716, read-out: GLP 1 Secretion

CC(C)CC(=O)N[C@H](C(=O)N[C@H](C(=O)N[C@@H](CC(C)C)[C@@H](O)CC(=O)N[C@@H](C)C(=O)N[C@@H](CC(C)C)[C@@H](O)CC(=O)O)C(C)C)C(C)C [Pepstatin] (Isovaleryl-VV[Sta]A[Sta]-OH)
IC50 [1, 4]: 17.7 µM
IC50 [2, 5]: 1.24 µM
EC50 (INS-1E cells; [6]): > 10 µM
EC50 (NCI-H716 cells; [7]): > 10 µM
IC50 (HCT116; [8]): > 20 µM
IC50 (DLD-1; [9]): > 20 µM
EC50 (HeLa cells; [10]): > 10 µM
IC50 (SW480; [11]): > 20 µM
EC50 [3, 12]: > 10 µM

O=C1c2c(O)cccc2Cc2cccc(O)c21 [Anthralin]
IC50 [1, 4]: 16.3 µM
IC50 [2, 5]: 0.604 µM
EC50 (INS-1E cells; [6]): > 10 µM
EC50 (NCI-H716 cells; [7]): > 10 µM
IC50 (HCT116; [8]): 2.2 µM
IC50 (DLD-1; [9]): 0.0667 µM
EC50 (HeLa cells; [10]): > 10 µM
IC50 (SW480; [11]): 1.57 µM
EC50 [3, 12]: > 10 µM

C[C@@H]1C[C@H]2[C@@H]3CCC4=CC(=O)C=C[C@]4(C)[C@@]3(Cl)[C@@H](O)C[C@]2(C)[C@@]1(OC(=O)c1ccco1)C(=O)CCl [Mometasone furoate]
IC50 [1, 4]: > 20 µM
IC50 [2, 5]: 4.99 µM
EC50 (INS-1E cells; [6]): > 10 µM
EC50 (NCI-H716 cells; [7]): > 10 µM
IC50 (HCT116; [8]): 14.5 µM
IC50 (DLD-1; [9]): 8.42 µM
EC50 (HeLa cells; [10]): > 10 µM
IC50 (SW480; [11]): 4.89 µM
EC50 [3, 12]: > 10 µM

Cc1ccc(Nc2nccc(N(C)c3ccc4c(C)n(C)nc4c3)n2)cc1S(N)(=O)=O [pazopanib, reference compound]
IC50 ([1]; Homo sapiens, HCT-116, 72 h, read-out: HCT-116 (GSK3β) viab. IC50): > 20 µM
IC50 ([2]; Homo sapiens, read-out: Anti-Angio IC50): 0.047 µM
IC50 [2, 5]: 0.0465 µM
EC50 (INS-1E cells; [13]): > 10 µM
EC50 (NCI-H716 cells; [14]): > 10 µM
IC50 (HCT116; [15]): > 20 µM
IC50 (DLD-1; [16]): > 20 µM
EC50 (HeLa cells; [10]): > 10 µM
IC50 (SW480; [17]): 5.7 µM
IC50 (SW480; [11]): 5.68 µM
activity in the Wnt potentiation module (in words) [3]: None of these agents, however, possessed appreciable activity
EC50 [3, 18]: > 10 µM

CC(C)=CCC/C(C)=C/CC/C(C)=C/C(=O)OCC(=O)[C@@]1(O)CC[C@H]2[C@@H]3CCC4=CC(=O)C=C[C@]4(C)[C@H]3[C@@H](O)C[C@@]21C [prednisolone farnesil]
IC50 ([1]; read-out: GSK3b inh pretreated_Viability ATP HCT116): 7.19 µM
IC50 ([2]; read-out: Anti-Angiogenesis): 3.34 µM
EC50 (INS-1E cells; read-out: Insulin Secretion): > 10 µM
EC50 (NCI-H716 cells; read-out: GLP 1 Secretion): > 10 µM
IC50 (HCT116; read-out: Basal_Viability ATP HCT116): 5.74 µM
IC50 (DLD-1; read-out: Basal_Viability ATP DLD-1): 7.93 µM
EC50 (HeLa cells): > 10 µM
IC50 (SW480; read-out: Basal_Viability ATP SW480): 8.11 µM
EC50 ([3]; read-out: Wnt Pathway): > 10 µM

Cc1ccc(S(=O)(=O)NC(=O)NN2CC3CCCC3C2)cc1 (stereo not drawn) [gliclazide, reference compound]
IC50 ([1]; Homo sapiens, HCT-116, read-out: HCT-116 (GSK3β) viab. IC50, Table 2, GSK3β inhibitor LY2090314 20 nM, 72 h, Cell TiterGlo, 20 coded): > 20 µM
IC50 ([2]; Homo sapiens, Table 2, primary assay tube area, 20 = no response in concentration-response, 20.1 = inactive in single concentration testing, read-out: Anti-Angio IC50): > 10 µM
EC50 (INS-1E cells; [13]): 1.8 µM
EC50 (INS-1E cells; [6]): 1.83 µM
EC50 (NCI-H716 cells; [14]): > 10 µM
IC50 (HCT116; [15]): > 20 µM
IC50 (DLD-1; [16]): > 20 µM
G2/M IC50 / EC50 (HeLa cells): 20 (values shown as 20 indicate that the compound was tested in concentration-response and showed no response at the highest concentration tested (e.g. IC50 > 20 μM))
EC50 (HeLa cells; [10]): > 10 µM
IC50 (SW480; [17]): > 20 µM
EC50 [3, 18]: > 10 µM

Cc1c2oc3c(C)ccc(C(=O)N[C@@H]4C(=O)N[C@H](C(C)C)C(=O)N5CCC[C@H]5C(=O)N(C)CC(=O)N(C)[C@@H](C(C)C)C(=O)O[C@@H]4C)c3nc-2c(C(=O)N[C@@H]2C(=O)N[C@H](C(C)C)C(=O)N3CCC[C@H]3C(=O)N(C)CC(=O)N(C)[C@@H](C(C)C)C(=O)O[C@@H]2C)c(N)c1=O [Dactinomycin] (I: T[dV]P[Sar][NMeV] / II: T[dV]P[Sar][NMeV]; ester I:1-I:C, II:1-II:C; linker I:N-II:N via Actinocin(9to1))
IC50 [1, 19]: > 20 µM
IC50 [2, 20]: 0.001 µM
EC50 (INS-1E cells; [21]): > 10 µM
EC50 (NCI-H716 cells; [22]): > 10 µM
IC50 (HCT116; Homo sapiens, HCT-116, read-out: Basal_Viability ATP HCT116): 12.6 µM
IC50 (DLD-1; Homo sapiens, DLD-1, read-out: Basal_Viability ATP DLD-1): 0.0667 µM
IC50 (SW480; Homo sapiens, SW480, read-out: Basal_Viability ATP SW480): 0.0667 µM
EC50 ([3]; Mus musculus, IC50 / EC50, C2C12 beta-catenin translocation, read-out: Wnt Pathway): 0.0015 µM

NC(=O)C1(N2CCCCC2)CCN(CCCN2c3ccccc3CCc3ccc(Cl)cc32)CC1 [Clocapramine]
IC50 [1, 19]: 3.64 µM
IC50 [2, 20]: 3.4 µM
EC50 (INS-1E cells; [21]): 10.1 µM
EC50 (NCI-H716 cells; [22]): 18.3 µM
IC50 (HCT116; Homo sapiens, HCT-116, basal, read-out: Basal_Viability ATP HCT116): 3.41 µM
IC50 (DLD-1; Homo sapiens, DLD-1, basal, read-out: Basal_Viability ATP DLD-1): 5.35 µM
IC50 (SW480; Homo sapiens, SW480, basal, read-out: Basal_Viability ATP SW480): 3.69 µM
EC50 ([3]; Mus musculus, C2C12, IC50 / EC50, C2C12 beta-catenin translocation, read-out: Wnt Pathway): > 20 µM
